In ChEMBL document CHEMBL1201862, “PubChem BioAssay data set” (2004):
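Step 1: Grow cells in 96-well plates. Step 2: Expose to compound for 48 hours at 5 concentrations. Step 3: Interpolate endpoints linearly; if unreached, use highest concentration. GI50: concentration for 50% inhibition of growth.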 Calls of active or inactive are those of the source. No stated cut-off is given here; in the data, active = GI50 up to about 1.1 µM and inactive = higher.

Assays:
Assay in all cases: NCI anticancer screen, dose series, 48 h
[1] = test system: UACC-62
[2] = test system: SK-MEL-2
[3] = test system: MDA-MB-435
[4] = test system: 786-0
[5] = test system: TK-10
[6] = test system: SN12C
[7] = test system: HCT-116
[8] = test system: SNB-19
[9] = test system: IGROV-1
[10] = test system: NCI-H522
[11] = test system: MDA-N
[12] = test system: SF-539
[13] = test system: OVCAR-8
[14] = test system: MCF7
[15] = test system: Hs-578T
[16] = test system: UO-31
[17] = test system: SW-620
[18] = test system: EKVX
[19] = test system: OVCAR-4
[20] = test system: A498

Measured: GI50

CNc1nc(N)nc(Nc2ccc(I)cc2)c1N=O
inactive: [1] 48 µM | [2] > 100 µM | [3] > 100 µM | [4] > 100 µM | [5] > 100 µM | [6] > 100 µM | [7] > 100 µM | [8] > 100 µM | [9] > 100 µM | [10] 40 µM | [11] > 100 µM | [12] > 100 µM | [13] > 100 µM | [14] > 100 µM | [15] 39.1 µM | [16] 27 µM | [17] > 100 µM | [18] > 100 µM

O=C1OCN(c2ccccc2)C12CCN(Cc1ccccc1)CC2
inactive: [1] 18.6 µM | [2] 25.8 µM | [3] 17.1 µM | [4] 26.8 µM | [19] 35.8 µM | [5] 32.8 µM | [6] 42.6 µM | [7] 31.7 µM | [8] 67 µM | [9] 59.8 µM | [11] 23.6 µM | [12] 20.8 µM | [13] 39.4 µM | [14] 32.6 µM | [15] 23.9 µM | [16] 51.3 µM | [17] 18 µM | [18] > 100 µM

CCOc1ccc(/C=N/[N+](C)(C)C)cc1OCC
inactive: [1] > 10 µM | [3] > 10 µM | [4] > 10 µM | [19] > 10 µM | [5] > 10 µM | [6] > 10 µM | [7] > 10 µM | [8] > 10 µM | [9] > 10 µM | [10] > 10 µM | [11] > 10 µM | [12] > 10 µM | [13] > 10 µM | [14] > 10 µM | [15] > 10 µM | [17] > 10 µM

N=C(N)N/N=C/c1c(-c2ccccc2[N+](=O)[O-])nc2sccn12
inactive: [1] 17.5 µM | [2] 15.1 µM | [3] 17.1 µM | [4] 19.5 µM | [19] 45.9 µM | [5] 23.6 µM | [6] 32.5 µM | [7] 18.6 µM | [8] 23.8 µM | [9] 37.6 µM | [10] 17 µM | [12] 19.2 µM | [13] 32.2 µM | [14] 19.1 µM | [20] 18.8 µM | [15] 29.1 µM | [16] 36.8 µM | [17] 18.4 µM | [18] 43.8 µM

COc1ccc(/C=C2\CCC(CN(C)C)C2=O)cc1OC (stereo unspecified)
inactive: [1] 5.46 µM | [2] 11.5 µM | [3] 5.55 µM | [4] 3.34 µM | [19] 7.64 µM | [5] 7.14 µM | [6] 3.43 µM | [7] 2.3 µM | [8] 16.5 µM | [9] 13.1 µM | [10] 1.95 µM | [12] 10.5 µM | [13] 2.9 µM | [14] 2.56 µM | [20] 14.6 µM | [15] 4.3 µM | [16] 11.5 µM | [17] 1.82 µM | [18] 16.1 µM

O=C(CSCC(=O)N/N=C\c1ccccc1F)N/N=C\c1ccccc1F
inactive: [1] > 100 µM | [2] > 100 µM | [3] 68.5 µM | [4] > 100 µM | [19] > 100 µM | [5] > 100 µM | [6] > 100 µM | [7] > 100 µM | [8] > 100 µM | [9] > 100 µM | [10] 64.6 µM | [12] > 100 µM | [13] 49.9 µM | [14] > 100 µM | [20] > 100 µM | [15] > 100 µM | [16] > 100 µM | [17] > 100 µM | [18] > 100 µM

O=[N+]([O-])C[C@@]12O[C@]3(O)C4C5CC(C6C5C3C61)C42 (stereo partly specified)
inactive: [1] > 100 µM | [2] > 100 µM | [3] > 100 µM | [4] > 100 µM | [19] > 100 µM | [5] > 100 µM | [6] > 100 µM | [7] > 100 µM | [8] > 100 µM | [9] > 100 µM | [10] > 100 µM | [12] > 100 µM | [13] > 100 µM | [14] > 100 µM | [20] > 100 µM | [15] > 100 µM | [16] > 100 µM | [17] > 100 µM | [18] > 100 µM

c1ccc(CCN2CCN=C2Cc2ccccc2)cc1
inactive: [1] > 100 µM | [2] > 100 µM | [4] > 100 µM | [19] > 100 µM | [5] > 100 µM | [6] > 100 µM | [7] > 100 µM | [8] > 100 µM | [9] > 100 µM | [10] > 100 µM | [11] > 100 µM | [13] > 100 µM | [14] > 100 µM | [20] > 100 µM | [15] > 100 µM | [16] 99.1 µM | [17] > 100 µM | [18] > 100 µM
